What was measured:
[1] = Cytotoxicity against human SF295 cells assessed as cell growth at 10^-5 M after 48 hrs by sulforhodamine B assay; assay type: functional; settings: SF-295, 48 h, read-out: Activity
[2] = system: SK-MEL-28; experiment: Cytotoxicity against human SK-MEL-28 cells assessed as cell growth at 10^-5 M after 48 hrs by sulforhodamine B assay; assay type: functional; settings: SK-MEL-28, 48 h, read-out: Activity
[3] = system: MDA-MB-231; experiment: Cytotoxicity against human MDA-MB-231 cells assessed as cell growth at 10^-5 M after 48 hrs by sulforhodamine B assay; assay type: functional; settings: MDA-MB-231, 48 h, read-out: Activity
[4] = Cytotoxicity against human SW620 cells assessed as cell growth at 10^-5 M after 48 hrs by sulforhodamine B assay; assay type: functional; settings: SW-620, 48 h, read-out: Activity
[5] = Cytotoxicity against human RXF393 cells assessed as cell growth at 10^-5 M after 48 hrs by sulforhodamine B assay; assay type: functional; settings: RXF 393, 48 h, read-out: Activity
[6] = Cytotoxicity against human SKOV3 cells assessed as cell growth at 10^-5 M after 48 hrs by sulforhodamine B assay; assay type: functional; settings: SK-OV-3, 48 h, read-out: Activity
[7] = system: NCI-H23; experiment: Cytotoxicity against human NCI-H23 cells assessed as cell growth at 10^-5 M after 48 hrs by sulforhodamine B assay; assay type: functional; settings: NCI-H23, 48 h, read-out: Activity
[8] = biological target: T1, Dihydrofolate reductase (Homo sapiens, UniProt P00374); experiment: Inhibition of human DHFR assessed as conversion of dihydrofolic acid to tetrahydrfolic acid by enzyme immunoassay in presence of NADPH
T1 sequence (P00374 whole entry): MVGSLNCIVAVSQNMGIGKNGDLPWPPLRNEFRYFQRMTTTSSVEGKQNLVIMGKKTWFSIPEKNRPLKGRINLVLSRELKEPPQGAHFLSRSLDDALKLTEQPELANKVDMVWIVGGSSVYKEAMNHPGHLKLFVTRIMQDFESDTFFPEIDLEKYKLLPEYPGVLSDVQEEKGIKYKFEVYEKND

[9] = system: HT-29; experiment: Cytotoxicity against human HT-29 cells assessed as cell growth at 10^-5 M after 48 hrs by sulforhodamine B assay; assay type: functional; settings: HT-29, 48 h, read-out: Activity
[10] = system: Malme-3M; experiment: Cytotoxicity against human MALME-3M cells assessed as cell growth at 10^-5 M after 48 hrs by sulforhodamine B assay; assay type: functional; settings: read-out: Activity
[11] = Cytotoxicity against human Hs 578T cells assessed as cell growth at 10^-5 M after 48 hrs by sulforhodamine B assay; assay type: functional; settings: read-out: Activity
[12] = system: 786-0; experiment: Cytotoxicity against human 786-0 cells assessed as cell growth at 10^-5 M after 48 hrs by sulforhodamine B assay; assay type: functional; settings: 786-0, 48 h, read-out: Activity
[13] = Cytotoxicity against human Caki1 cells assessed as cell growth at 10^-5 M after 48 hrs by sulforhodamine B assay; assay type: functional; settings: CAKI-1, 48 h, read-out: Activity
[14] = system: NCI-H226; experiment: Cytotoxicity against human NCI-H226 cells assessed as cell growth at 10^-5 M after 48 hrs by sulforhodamine B assay; assay type: functional; settings: NCI-H226, 48 h, read-out: Activity
[15] = system: NCI-H522; experiment: Cytotoxicity against human NCI-H522 cells assessed as cell growth at 10^-5 M after 48 hrs by sulforhodamine B assay; assay type: functional; settings: NCI-H522, 48 h, read-out: Activity
[16] = Cytotoxicity against human HCT116 cells assessed as cell growth at 10^-5 M after 48 hrs by sulforhodamine B assay; assay type: functional; settings: HCT-116, 48 h, read-out: Activity
[17] = Cytotoxicity against human UO31 cells assessed as cell growth at 10^-5 M after 48 hrs by sulforhodamine B assay; assay type: functional; settings: UO-31, 48 h, read-out: Activity
[18] = Cytotoxicity against human OVCAR8 cells assessed as cell growth at 10^-5 M after 48 hrs by sulforhodamine B assay; assay type: functional; settings: OVCAR-8, 48 h, read-out: Activity
[19] = Cytotoxicity against human UACC257 cells assessed as cell growth at 10^-5 M after 48 hrs by sulforhodamine B assay; assay type: functional; settings: UACC-257, 48 h, read-out: Activity
[20] = system: SK-MEL-5; experiment: Cytotoxicity against human SK-MEL-5 cells assessed as cell growth at 10^-5 M after 48 hrs by sulforhodamine B assay; assay type: functional; settings: SK-MEL-5, 48 h, read-out: Activity
[21] = system: M14; experiment: Cytotoxicity against human M14 cells assessed as cell growth at 10^-5 M after 48 hrs by sulforhodamine B assay; assay type: functional; settings: M14, 48 h, read-out: Activity
[22] = system: SK-MEL-2; experiment: Cytotoxicity against human SK-MEL-2 cells assessed as cell growth at 10^-5 M after 48 hrs by sulforhodamine B assay; assay type: functional; settings: SK-MEL-2, 48 h, read-out: Activity
[23] = system: MDA-MB-468; experiment: Cytotoxicity against human MDA-MB-468 cells assessed as cell growth at 10^-5 M after 48 hrs by sulforhodamine B assay; assay type: functional; settings: MDA-MB-468, 48 h, read-out: Activity
[24] = Cytotoxicity against human OVCAR5 cells assessed as cell growth at 10^-5 M after 48 hrs by sulforhodamine B assay; assay type: functional; settings: OVCAR-5, 48 h, read-out: Activity
[25] = Cytotoxicity against human HL-60(TB) cells assessed as cell growth at 10^-5 M after 48 hrs by sulforhodamine B assay; assay type: functional; settings: HL-60, 48 h, read-out: Activity
[26] = system: EKVX; experiment: Cytotoxicity against human EKVX cells assessed as cell growth at 10^-5 M after 48 hrs by sulforhodamine B assay; assay type: functional; settings: read-out: Activity
[27] = Cytotoxicity against human SF268 cells assessed as cell growth at 10^-5 M after 48 hrs by sulforhodamine B assay; assay type: functional; settings: SF-268, 48 h, read-out: Activity
[28] = Cytotoxicity against human OVCAR3 cells assessed as cell growth at 10^-5 M after 48 hrs by sulforhodamine B assay; assay type: functional; settings: OVCAR-3, 48 h, read-out: Activity
[29] = Cytotoxicity against human PC3 cells assessed as cell growth at 10^-5 M after 48 hrs by sulforhodamine B assay; assay type: functional; settings: PC-3, 48 h, read-out: Activity
[30] = system: K562; experiment: Cytotoxicity against human K562 cells assessed as cell growth at 10^-5 M after 48 hrs by sulforhodamine B assay; assay type: functional; settings: K562, 48 h, read-out: Activity
[31] = system: NCI-H460; experiment: Cytotoxicity against human NCI-H460 cells assessed as cell growth at 10^-5 M after 48 hrs by sulforhodamine B assay; assay type: functional; settings: NCI-H460, 48 h, read-out: Activity
[32] = system: T47D; experiment: Cytotoxicity against human T47D cells assessed as cell growth at 10^-5 M after 48 hrs by sulforhodamine B assay; assay type: functional; settings: read-out: Activity
[33] = system: KM12; experiment: Cytotoxicity against human KM12 cells assessed as cell growth at 10^-5 M after 48 hrs by sulforhodamine B assay; assay type: functional; settings: KM12, 48 h, read-out: Activity
[34] = system: SR; experiment: Cytotoxicity against human SR cells assessed as cell growth at 10^-5 M after 48 hrs by sulforhodamine B assay; assay type: functional; settings: read-out: Activity
[35] = Cytotoxicity against human HOP92 cells assessed as cell growth at 10^-5 M after 48 hrs by sulforhodamine B assay; assay type: functional; settings: HOP-92, 48 h, read-out: Activity

Structure (SMILES)	growth at 10 µM [1] [%]	growth at 10 µM [2] [%]	growth at 10 µM [3] [%]	growth at 10 µM [4] [%]	growth at 10 µM [5] [%]	growth at 10 µM [6] [%]	growth at 10 µM [7] [%]	IC50 [8] [nM]	growth at 10 µM [9] [%]	growth at 10 µM [10] [%]	growth at 10 µM [11] [%]	growth at 10 µM [12] [%]	growth at 10 µM [13] [%]	growth at 10 µM [14] [%]	growth at 10 µM [15] [%]	growth at 10 µM [16] [%]	growth at 10 µM [17] [%]	growth at 10 µM [18] [%]	growth at 10 µM [19] [%]	growth at 10 µM [20] [%]	other results
O=C1NC(=O)C(=Cc2cn(CC(O)Cn3cc(C=C4C(=O)NC(=O)NC4=O)c4ccccc43)c3ccccc23)C(=O)N1	103	111	105	102	89.1	102	94.7	5000	88.3	97.7	108	91.3	101	108	97.1	79.2	86	117	110	101	growth at 10 µM [21]: 98.7%; growth at 10 µM [22]: 113%; growth at 10 µM [23]: 96.7%; growth at 10 µM [24]: 109%; growth at 10 µM [25]: 107%; growth at 10 µM [26]: 101%; growth at 10 µM [27]: 93.4%; growth at 10 µM [28]: 109%; growth at 10 µM [29]: 93.7%; growth at 10 µM [30]: 107%; growth at 10 µM [31]: 55.1%; growth at 10 µM [32]: 91.8%; growth at 10 µM [33]: 94%; growth at 10 µM [34]: 96.9%; growth at 10 µM [35]: 101%
O=C1Nc2ccccc2/C1=C/c1cn(CC(O)Cn2cc(/C=C3\C(=O)Nc4ccccc43)c3ccccc32)c2ccccc12 (stereo unspecified)	-84.7	-85	-80	-60.4	-90.8	-38.2	-67.3	30	-20.2	-76	-22.2	-70.8	9.83	-74.8	-17.4	-64.2	-9.18	1.35	-51	-80.2	Ki [8]: 5.83 nM; growth at 10 µM [21]: -81.4%; growth at 10 µM [22]: -57.6%; growth at 10 µM [23]: -84.8%; growth at 10 µM [24]: -34.1%; growth at 10 µM [25]: -10.2%; growth at 10 µM [26]: -62.3%; growth at 10 µM [27]: -62%; growth at 10 µM [28]: -85.1%; growth at 10 µM [29]: -86.3%; growth at 10 µM [30]: -16.7%; growth at 10 µM [31]: -65.1%; growth at 10 µM [32]: -46.1%; growth at 10 µM [33]: -80.9%; growth at 10 µM [34]: -2.94%; growth at 10 µM [35]: -73.9%
CN1C(=O)C(=Cc2cn(CC(O)Cn3cc(C=C4C(=O)N(C)C(=O)N(C)C4=O)c4ccccc43)c3ccccc23)C(=O)N(C)C1=O	107	109	78.3	102	104	85.2	87.9	20000	112	87.7	97.3	100	90.8	86	108	80.3	63.8	114	127	97	growth at 10 µM [21]: 89.7%; growth at 10 µM [22]: 118%; growth at 10 µM [23]: 19.4%; growth at 10 µM [24]: 90.5%; growth at 10 µM [25]: 107%; growth at 10 µM [26]: 91.7%; growth at 10 µM [27]: 92%; growth at 10 µM [28]: 95.2%; growth at 10 µM [29]: 79.6%; growth at 10 µM [30]: 97.3%; growth at 10 µM [31]: 33.1%; growth at 10 µM [32]: 91.8%; growth at 10 µM [33]: 94.3%; growth at 10 µM [34]: 94.3%; growth at 10 µM [35]: 80.4%

Reference: ChEMBL document CHEMBL3785084, “Rational modification of the lead molecule: Enhancement in the anticancer and dihydrofolate reductase inhibitory activity” (Bioorg Med Chem Lett, 2016)
